Here are results for two compounds from publication PMC9973354 (mBio, 2022).

Structures are written as SMILES. Starred links: 1 amine or outer side, 2 acyl side, 3 side chain; linkers in the order of their positions; H or OH if unused. Positions of bridges follow the written chain, without caps; N, C: chain ends. Non-standard residues stand in square brackets, D forms with d. Residues, ends and D or L forms follow the SMILES beside them. ξ: configuration not given here. X1 = O=C([C@@H]1CCN=C2C(N[*:1])=Cc3cc(O)c(O)cc3N21)[*:2]; ξOrn(N(OH)CHO) = NC(CCCN(O)C=O)C(=O)O; Suc = O=C(CCC(=O)[*:2])[*:1]; ξK = NCCCCC(N)C(=O)O; ξS = NC(CO)C(=O)O

Common to all, as to type: cell-based, Pseudomonas aeruginosa
One test concerns PA14 ΔfpvA mutant. Nature of the test: Growth curves with DSX and siderophores, ΔfpvA. The following applies: 20 h; for growth with siderophore in the presence of DSX: 64 μg/mL DSX + 10 μg/mL siderophore. As to the method: (§1) Supplementary file : FIG S1 (A) FpvB is expressed in WT PA14 and the ΔfpvA mutant grown in 10:90. PilF was used as a loading control for outer membrane proteins. (B) FpvA is expressed from WT PA14 grown in 10:90. […] PilF was used as a loading control for outer membrane proteins. (C) Growth curves of PA14 and mutants with DSX and different siderophores in 10:90. PA14, ΔfpvA, ΔfpvB, ΔfpvA ΔfpvB, and ΔpvdA ΔpchA strain growth. Blue indicates control, purple indicates treatment with 64 μg/mL DSX, yellow indicates treatment with 10 μg/mL pyoverdine (PA14), and red indicates treatment with 64 μg/mL DSX and 10 μg/mL pyoverdine (PA14). (D) ΔfpvA, ΔfpvA ΔfpvB, and ΔpvdA ΔpchA strain growth. Blue indicates control, purple indicates treatment with 64 μg/mL DSX, grey indicates treatment with 10 μg/mL ferrichrome, and red indicates treatment with 64 μg/mL DSX and 10 μg/mL ferrichrome. (E) ΔfpvA, ΔfpvA ΔfpvB, and ΔpvdA ΔpchA strain growth. […] Download FIG S1, EPS file, 8.5 MB.
(§2) Another explanation for the susceptibility of the ΔfpvA mutant to DSX is that the mutant produces less pyoverdine compared to WT cells due to loss of the signaling cascade that controls siderophore production in response to its binding to FpvA ([25]). To differentiate whether the fpvA mutant was susceptible to DSX because of reduced pyoverdine production or because FpvB was a poor pyoverdine transporter, we treated the WT, ΔfpvA, ΔfpvB, and ΔfpvA ΔfpvB strains with DSX (64 μg/mL) without and with exogenous pyoverdine (10 μg/mL) for 20 h (Fig. 1; see also Fig. S1C). Growth of the ΔfpvA mutant should be restored if there are functional pyoverdine transporters. […] The growth of the ΔfpvA ΔfpvB mutant was inhibited by DSX and pyoverdine, confirming previously published results ([18]).
(§3) As a control, a ΔpvdA ΔpchA mutant unable to make pyoverdine and pyochelin was also tested. Growth of this mutant was inhibited by DSX.

The subject of the next test is PA14 ΔfpvA ΔfpvB mutant. Nature of the test: Growth curves with DSX and siderophores, ΔfpvA ΔfpvB. The following applies: 20 h. The protocol:
as §1, §2, §3

In a further test the test system is PA14 ΔpvdA ΔpchA mutant. The test can be described thus: Growth curves with DSX and siderophores, ΔpvdA ΔpchA. The note with it: 64 μg/mL DSX + 10 μg/mL siderophore, 20 h. The protocol:
as §1, §3

Test [1] concerns PA14 ΔfpvA ΔfpvB ΔfiuA ΔfoxA quadruple mutant. Nature of the test: Growth phenotypes of deletion mutants, quadruple mutant. The note with it: 64 μg/mL DSX, 10 μg/mL siderophores, 10:90. An excerpt: PA14, ΔfpvA, ΔfpvB, and ΔfpvA ΔfpvB strains treated with TS (A) and DSX (B) in 10:90. Green indicates growth, and white indicates no growth. Growth is expressed as percent of control. The PA14 ΔfpvA ΔfpvB strain complemented with pHERD20T, fpvA, or fpvB treated with TS (C) and DSX (D) in 10:90. […] All experiments are averaged from three independent biological replicates. Blue indicates growth and white indicates no growth. (H) Summary of growth phenotypes of WT PA14 and combinations of single, double, triple, and quadruple deletion mutants in fpvA, fpvB, fiuA, and foxA. […] Green indicates growth, whereas no growth is indicated in white. […] Representative plates are shown.
If there were no transporters for a particular siderophore, the mutant would fail to grow due to iron restriction.

Test [2] has as its system PA14 ΔfpvA ΔfpvB ΔfiuA ΔfoxA pHERD20T-fpvB D219A. The test can be described thus: Growth of quadruple mutant expressing FpvB D219A. The note with it: 10:90 + 2% arabinose. As to the method:
(§4) Site-directed mutagenesis was used to confirm the docking predictions and to define the molecular determinants for ligand uptake through FpvB (Fig. 4C). We generated 17 single amino acid substitutions in FpvB and expressed each of them in trans in the quadruple ΔfpvA ΔfpvB ΔfiuA ΔfoxA mutant. Their ability to complement growth of the mutant in the presence of ferrichrome and ferrioxamine B and to restore TS susceptibility was assessed. […] The mutant transporters were tagged with a C-terminal FLAG tag to evaluate expression levels. FLAG-tagged FpvB mutants had WT levels of expression except for Y216T and W347V, which were expressed at 140% and 25% of WT, respectively.
(§5) The ΔfpvA ΔfpvB ΔfiuA ΔfoxA mutant was complemented with WT fpvA, fpvB, fiuA, and foxA in trans as controls (Fig. 4E).
(§6) MIC assays were conducted as previously described ([13], [14]). Overnight cultures were grown in LB from a glycerol stock at 37°C with shaking (200 rpm). Subcultures in 10:90 (1:100 dilution) were cultured for 4 h. Cells were adjusted to an optical density at 600 nm (OD600) of 0.1/500 in 10:90. All compounds were serially diluted 2-fold in dimethyl sulfoxide (DMSO) or H2O at 75× the final concentration. […] The next day, the OD600 was determined with a plate reader (Thermo Scientific) and normalized to percent of growth of the vehicle control after subtracting the OD600 from blank media.

The test system of test [3] is PA14 ΔfpvA ΔfpvB ΔfiuA ΔfoxA pHERD20T-fpvB W347V. The test can be described thus: Growth of quadruple mutant expressing FpvB W347V. The note with it: FpvB W347V (expressed at 25% of WT), 10:90 + 2% arabinose. The protocol: as §4, §5, §6

As to `CC(=O)N(O)CCCCCNC(=O)CCC(=O)N(O)CCCCCNC(=O)CCC(=O)N(O)CCCCCN` [ferrioxamine B], the “growth with siderophore in the presence of DSX” value in the test with PA14 ΔfpvA mutant, with PA14 ΔfpvA ΔfpvB mutant (64 μg/mL DSX + 10 μg/mL siderophore) and with PA14 ΔpvdA ΔpchA mutant was “rescued growth” each time. In addition, the “growth in the presence of compound” value in test [1] was “failed to grow”. Moreover, the “growth in the presence of siderophore” value in test [2] and in test [3] was “prevented growth” throughout.

Regarding `NCCCCC(NC(=O)C(CO)NC(=O)[C@@H]1CCN=C2C(NC(=O)CCC(=O)O)=Cc3cc(O)c(O)cc3N21)C(=O)NCC(=O)NC(CCCN(O)C=O)C(=O)NC1CCCCNC(=O)C(CO)NC(=O)C(CCCN(O)C=O)NC1=O` (stereo partly shown) [pyoverdine] (Suc-[X1][ξS][ξK]G[ξOrn(N(OH)CHO)][ξK][ξOrn(N(OH)CHO)][ξS]; lactam 6-C), the results for the “growth with siderophore in the presence of DSX” value with PA14 ΔfpvA mutant and with PA14 ΔpvdA ΔpchA mutant were “restored growth compared to DSX alone” and “restored growth”, respectively. Moreover, the growth versus control result in the test with PA14 ΔfpvA mutant (DSX 64 μg/mL or pyoverdine 10 μg/mL alone, 10:90) is “delayed growth”; with PA14 ΔfpvA ΔfpvB mutant (DSX 64 μg/mL, pyoverdine 10 μg/mL), “inhibited”.
